How the values were obtained:
in vitro = settings: human, uninfected MT-4 cells, CC50 (nM), same protocol as Test A, CellTiter-Glo
How it was run: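 Cytoprotection read-out: CellTiter-Glo chemiluminescence after 5 days at 37 °C of HIV-IIIb-infected MT-4 cells (m.o.i. 0.003) with compound in 10-point 3-fold dilutions, quadruplicate, 10% FBS. Cytotoxicity (CC50) measured identically without virus.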

HIV-IIIb = assay: Test A: Antiviral assay in MT4 cells; format: cell-based, HIV-1; settings: Human immunodeficiency virus 1, IIIB, MT4, 120 h, read-out: % inhibition at 2 μM, percent inhibition of virus-induced cell killing, from dose response curve at 2 uM drug; MT-4 cells infected with HIV-IIIb, 5 days, CellTiter-Glo

Structure (SMILES)	CC50 at 5 days (in vitro)	inhibition at 2 µM (HIV-IIIb)
N#Cc1nn(CC(=O)N[C@@H](Cc2cc(F)cc(F)c2)c2ncccc2-c2ccc(F)c(C(N)=O)c2)c2c1C1CC1C2(F)F (stereo partly drawn) [Example 254, 5-(2-((1S)-1-(2-(3-cyano-5,5-difluoro-3b,4,4a,5-tetrahydro-1H-cyclopropa[3,4]cyclopenta[1,2-c]pyrazol-1-yl)acetamido)-2-(3,5-difluorophenyl)ethyl)pyridin-3-yl)-2-fluorobenzamide]	16600 nM	91%
Cc1ccc2c(c1)NC(=O)C2CC(=O)N[C@@H](Cc1cc(F)cc(F)c1)c1ncccc1-c1ccc(F)c(C(N)=O)c1 (stereo partly drawn) [Example 255, 5-(2-((1S)-2-(3,5-difluorophenyl)-1-(2-(6-methyl-2-oxoindolin-3-yl)acetamido)ethyl)pyridin-3-yl)-2-fluorobenzamide]	> 53200 nM	1%
COc1ccc2c(c1)NC(=O)C2CC(=O)N[C@@H](Cc1cc(F)cc(F)c1)c1ncccc1-c1ccc(F)c(C(N)=O)c1 (stereo partly drawn) [Example 256, 5-(2-((1S)-2-(3,5-difluorophenyl)-1-(2-(6-methoxy-2-oxoindolin-3-yl)acetamido)ethyl)pyridin-3-yl)-2-fluorobenzamide]	> 53200 nM	15%
NC(=O)c1cc(-c2cccnc2[C@H](Cc2cccc(F)c2)NC(=O)Cc2cc(=O)[nH]c3ccccc23)ccc1F [Example 257, (S)-2-fluoro-5-(2-(2-(3-fluorophenyl)-1-(2-(2-oxo-1,2-dihydroquinolin-4-yl)acetamido)ethyl)pyridin-3-yl)benzamide]	> 53200 nM	7%
NC(=O)c1cc(-c2cccnc2[C@H](Cc2cc(F)cc(F)c2)NC(=O)Cn2nc(C(F)(F)F)c3c2COC3)ccc1F [Example 258, (S)-5-(2-(2-(3,5-difluorophenyl)-1-(2-(3-(trifluoromethyl)-4,6-dihydro-1H-furo[3,4-c]pyrazol-1-yl)acetamido)ethyl)pyridin-3-yl)-2-fluorobenzamide]	> 53200 nM	8%
Cc1ccc(C)c2c1NC(=O)C2CC(=O)N[C@@H](Cc1cc(F)cc(F)c1)c1ncccc1-c1ccc(F)c(C(N)=O)c1 (stereo partly drawn) [Example 259, 5-(2-((1S)-2-(3,5-difluorophenyl)-1-(2-(4,7-dimethyl-2-oxoindolin-3-yl)acetamido)ethyl)pyridin-3-yl)-2-fluorobenzamide]	47600 nM	2%
NC(=O)c1cc(-c2cccnc2[C@H](Cc2cc(F)cc(F)c2)NC(=O)Cn2nc(C(F)F)c3c2C(F)C2CC32)ccc1F (stereo partly drawn) [Example 260, 5-(2-((1S)-1-(2-(3-(difluoromethyl)-5-fluoro-3b,4,4a,5-tetrahydro-1H-cyclopropa[3,4]cyclopenta[1,2-c]pyrazol-1-yl)acetamido)-2-(3,5-difluorophenyl)ethyl)pyridin-3-yl)-2-fluorobenzamide]	28100 nM	54%
NC(=O)c1cc(-c2cccnc2[C@H](Cc2cc(F)cc(F)c2)NC(=O)Cn2nc3c(c2C(F)(F)F)CSC3)ccc1F [Example 261, (S)-5-(2-(2-(3,5-difluorophenyl)-1-(2-(3-(trifluoromethyl)-4,6-dihydro-2H-thieno[3,4-c]pyrazol-2-yl)acetamido)ethyl)pyridin-3-yl)-2-fluorobenzamide]	21200 nM	6%
Cc1cnc([C@H](Cc2cc(F)cc(F)c2)NC(=O)Cc2c[nH]c3ccc(O)cc23)c(-c2ccc(F)c(C(N)=O)c2)c1 [Example 262G, (S)-5-(2-(2-(3,5-difluorophenyl)-1-(2-(5-hydroxy-1H-indol-3-yl)acetamido)ethyl)-5-methylpyridin-3-yl)-2-fluorobenzamide]	> 51200 nM	109%
NC(=O)c1cc(-c2cccnc2[C@H](Cc2cc(F)cc(F)c2)NC(=O)Cn2nc(C(F)(F)F)c3c2CCS(=O)(=O)C3)ccc1F [Example 263, (S)-5-(2-(2-(3,5-difluorophenyl)-1-(2-(5,5-dioxido-3-(trifluoromethyl)-6,7-dihydrothiopyrano[4,3-c]pyrazol-1(4H)-yl)acetamido)ethyl)pyridin-3-yl)-2-fluorobenzamide]	> 53200 nM	17%
NC(=O)c1cc(-c2cccnc2[C@H](Cc2cccc(F)c2)NC(=O)CN2CC(=O)Nc3ccccc32)ccc1F [Example 264, (S)-2-fluoro-5-(2-(2-(3-fluorophenyl)-1-(2-(3-oxo-3,4-dihydroquinoxalin-1(2H)-yl)acetamido)ethyl)pyridin-3-yl)benzamide]	> 53200 nM	24%
NC(=O)c1cc(-c2cccnc2[C@H](Cc2cc(F)cc(F)c2)NC(=O)Cn2nc(C(F)(F)F)c3c2CC(O)C3)ccc1F (stereo partly drawn) [Example 265]	> 53200 nM	74%
NC(=O)c1cccc(-c2cccnc2[C@H](Cc2cc(F)cc(F)c2)NC(=O)Cn2ccc3cnc(Cl)nc32)c1 [Example 266C, (S)-3-(2-(1-(2-(2-chloro-7H-pyrrolo[2,3-d]pyrimidin-7-yl)acetamido)-2-(3,5-difluorophenyl)ethyl)pyridin-3-yl)benzamide]	51900 nM	0%
NC(=O)c1cc(-c2cccnc2[C@H](Cc2cc(F)cc(F)c2)NC(=O)CC2C(=O)Nc3ccc(F)cc32)ccc1F (stereo partly drawn) [Example 267, 5-(2-((1S)-2-(3,5-difluorophenyl)-1-(2-(5-fluoro-2-oxoindolin-3-yl)acetamido)ethyl)pyridin-3-yl)-2-fluorobenzamide]	> 52900 nM	5%
O=C(Cn1nc(C(F)F)c2c1C(F)(F)C1CC21)N[C@@H](Cc1cc(F)cc(F)c1)c1ncccc1-c1ccc(OC2CC2)cc1 (stereo partly drawn) [Example 268, N—((S)-1-(3-(4-cyclopropoxyphenyl)pyridin-2-yl)-2-(3,5-difluorophenyl)ethyl)-2-(3-(difluoromethyl)-5,5-difluoro-3b,4,4a,5-tetrahydro-1H-cyclopropa[3,4]cyclopenta[1,2-c]pyrazol-1-yl)acetamide]	27700 nM	27%
NC(=O)c1cc(-c2cccnc2[C@H](Cc2cc(F)cc(F)c2)NC(=O)CN2CC(=O)Nc3ccccc32)ccc1F [Example 269, (S)-5-(2-(2-(3,5-difluorophenyl)-1-(2-(3-oxo-3,4-dihydroquinoxalin-1(2H)-yl)acetamido)ethyl)pyridin-3-yl)-2-fluorobenzamide]	> 53200 nM	8%
NC(=O)c1cc(-c2cccnc2[C@H](Cc2cc(F)cc(F)c2)NC(=O)Cn2nc(C(F)(F)F)c3c2CCNC3=O)ccc1F [Example 270C, (S)-5-(2-(2-(3,5-difluorophenyl)-1-(2-(4-oxo-3-(trifluoromethyl)-4,5,6,7-tetrahydro-1H-pyrazolo[4,3-c]pyridin-1-yl)acetamido)ethyl)pyridin-3-yl)-2-fluorobenzamide]	> 53200 nM	1%
NC(=O)c1cc(-c2cccnc2[C@H](Cc2cc(F)cc(F)c2)NC(=O)Cn2nc(C(F)(F)F)c3cc(F)ccc32)ccc1F [Example 271B, (S)-5-(2-(2-(3,5-difluorophenyl)-1-(2-(5-fluoro-3-(trifluoromethyl)-1H-indazol-1-yl)acetamido)ethyl)pyridin-3-yl)-2-fluorobenzamide]	11400 nM	15%
CC1CCCc2c1c(C(F)(F)F)nn2CC(=O)N[C@@H](Cc1cc(F)cc(F)c1)c1ncccc1-c1ccc(F)c(C(N)=O)c1 (stereo partly drawn) [Example 272F, 5-(2-((1S)-2-(3,5-difluorophenyl)-1-(2-(4-methyl-3-(trifluoromethyl)-4,5,6,7-tetrahydro-1H-indazol-1-yl)acetamido)ethyl)pyridin-3-yl)-2-fluorobenzamide]	14300 nM	92%
NC(=O)c1cc(-c2cccnc2[C@H](Cc2cc(F)cc(F)c2)NC(=O)Cn2nc(C(F)(F)F)c3c2C(=O)CCC3)ccc1F [Example 273, (S)-5-(2-(2-(3,5-difluorophenyl)-1-(2-(7-oxo-3-(trifluoromethyl)-4,5,6,7-tetrahydro-1H-indazol-1-yl)acetamido)ethyl)pyridin-3-yl)-2-fluorobenzamide]	29600 nM	10%
CC(C)(C)OC(=O)N1CCc2c(c(C(F)(F)F)nn2CC(=O)N[C@@H](Cc2cc(F)cc(F)c2)c2ncccc2-c2ccc(F)c(C(N)=O)c2)C1 [Example 274, (S)-tert-butyl 1-(2-(1-(3-(3-carbamoyl-4-fluorophenyl)pyridin-2-yl)-2-(3,5-difluorophenyl)ethylamino)-2-oxoethyl)-3-(trifluoromethyl)-6,7-dihydro-1H-pyrazolo[4,3-c]pyridine-5(4H)-carboxylate]	11000 nM	0%
Cc1c(Br)c(C(F)(F)F)nn1CC(=O)N[C@@H](Cc1cc(F)cc(F)c1)c1ncccc1-c1ccc(F)c(C(N)=O)c1 [Example 275, (S)-5-(2-(1-(2-(4-bromo-5-methyl-3-(trifluoromethyl)-1H-pyrazol-1-yl)acetamido)-2-(3,5-difluorophenyl)ethyl)pyridin-3-yl)-2-fluorobenzamide]	16900 nM	53%
NC(=O)c1cc(-c2cccnc2[C@H](Cc2cc(F)cc(F)c2)NC(=O)Cn2cc(C3CC3)c(C(F)(F)F)n2)ccc1F [Example 276, (S)-5-(2-(1-(2-(4-cyclopropyl-3-(trifluoromethyl)-1H-pyrazol-1-yl)acetamido)-2-(3,5-difluorophenyl)ethyl)pyridin-3-yl)-2-fluorobenzamide]	16900 nM	29%
NC(=O)c1cc(-c2cccnc2[C@H](Cc2cc(F)cc(F)c2)NC(=O)Cn2nc(C(F)(F)F)c3c2CCCC32CC2)ccc1F [Example 277B, (S)-5-(2-(2-(3,5-difluorophenyl)-1-(2-(3′-(trifluoromethyl)-6′,7′-dihydrospiro[cyclopropane-1,4′-indazole]-1′(5′H)-yl)acetamido)ethyl)pyridin-3-yl)-2-fluorobenzamide]	19300 nM	96%
